# Patent publication US20210154281A1, “CELL-BASED CANCER VACCINES AND CANCER THERAPIES” (Massachusetts Institute of Technology, priority 2019, published 2021)
# Read-outs that look alike come from different tables or passages of the source.
# Tests used:
# [1] = tested on: B16F10 melanoma tumor cell line; experiment: Cell death by AnnexinV/DAPI staining 48 hours after drug treatment; assay type: cell-based, mouse; conditions: for cell death by DAPI and Annexin V staining: at the concentrations used
# Method: For assessment of cell death, floating and attached cells were harvested after 48 hours of treatment with the indicated chemotherapeutic drugs. Attached cells were detached using 5 mM EDTA in PBS. The recovered cells were centrifuged at 250×g for 5 minutes, washed once in PBS containing 0.9 mM Ca2+ and 0.5 mM Mg2+ and then stained with AnnV-FITC for 15 minutes in Annexin binding buffer at room temperature according to the manufacturer's protocol (Biolegend). Cells were co-stained with DAPI at a final concentration of 1 μg/ml for 2 minutes in Annexin binding buffer, brought to a final volume of 500 ul using PBS containing 0.9 mM Ca2^+ and 0.5 mM Mg2^+ and analyzed by flow cytometry.
# To identify how DNA-damaging chemotherapy could be optimally used to enhance anti-tumor immune function, cytotoxicity assays were performed using the B16F10 melanoma tumor cell line expressing ovalbumin (B16-Ova). Cells were treated with clinically used chemotherapeutic agents followed by assaying for cell death by DAPI and Annexin V staining 48 hours later.
# B16-Ova cells [2] = experiment: HMGB1 in cell culture media by ELISA; assay type: cell-based, mouse; conditions: for HMGB1 (ng/ml) MEAN: culture media 24-48 hours after treatment
# Method: Cell-free cell culture media was then analyzed by ELISA for HMGB1 according to the manufacturer's protocol.
# B16-Ova cells [3] = experiment: Calreticulin surface exposure by flow cytometry; conditions: for CALR (%): 24 hours after treatment, representative experiment
# p38MAPK = experiment: Western blotting of cell lysates with anti-phospho-p38 antibody; assay type: cell-based, mouse; conditions: B16-Ova cells
# B16-Ova cells [4] = experiment: In vitro cross presentation assay: drug-treated B16-Ova cells, BMDC and OT-1 CD8+ T-cells, IFN-γ+ T-cells by flow cytometry; assay type: cell-based, mouse
# Method: (§1) B16-Ova or MC-38 Ova cells were treated with various doses of chemotherapeutic drugs for 24 h followed by extensive washing in IMDM (10% FBS, P/S). Subsequently 1×10^6 treated cells were co-cultured with 2.5×10^5 BMDC per well of a 24-well plate for each condition tested. After 24 hours of co-culture, supernatants were removed from each well and the BMDC washed 2-3 times in T-cell media (RPMI containing 10% FBS, 20 mM HEPES, 1 mM sodium pyruvate, 55 uM b-mercaptoethanol, 2 mM L-glutamine, nonessential amino acids and antibiotics). CD8+OT-I T-cells isolated from spleens of OT-I mice were then co-cultured with the BMDC at 125,000 T-cells per well to achieve an effector to target ratio of 0.5. Where indicated, BMDC and/or T-cells were also exposed to chemotherapy drugs. After a 12-15 h incubation, IFN-g producing T-cells were identified and quantified by intra-cellular cytokine staining and flow cytometry using a BD LSR II or Fortessa flow cytometer. Cells were first gated for CD3 expression, then re-gated for CD8 and IFNg expression.
# An experimental system was developed to assess dendritic cell-mediated T-cell priming using the B16-Ova cells, in combination with primary bone-marrow derived dendritic cells (BMDC) and OT-I CD8+ T-cells expressing a TCR transgene that specifically recognizes the Ova-derived peptide […] (SEQ ID NO:1) in the context of H2-Kb (OT-1) (Clarke, et al., Immunol Cell Biol., 78(2):110-7 (2000); Hogquist, et al., Cell, 76(1):17-27 (1994)). […] The treated B16-Ova cells/BMDC co-culture was then incubated with purified CD8+ T-cells obtained from the spleens of OT-1 mice, and the appearance of IFNg+CD8 T-cells was measured 12-15 hours later by intracellular staining and subsequent quantification using flow cytometry.
# [5] = Cell viability (survival) assay with CellTiter-Glo, 48 hours; assay type: cell-based, mouse; conditions: mouse, B16F10 melanoma tumor cells, 48 hours, normalized to DMSO-treated control cells
# Method: (§2) For assays of survival, 15,000 cells were plated per well in a 96-well plate in 100 μl media with 5 replicates per condition. Wells along the four edges of the plate were not used. Following cell attachment, the indicated drugs were added in an equal volume of media, and incubated for an additional 48 hours. The media was then removed and replaced with 100 ul of fresh media at room temperature. Following a 30 minute incubation at room temperature, 50 μl of CellTiter-Glo reagent was added, followed by 2 minutes of gentle mixing. The plate was incubated at room temperature for an additional 10 minutes. 100 μl of supernatant was transferred to a 96-well white opaque plate and luminescence was read on a Tecan microplate reader. Values were normalized to those of DMSO-treated control cells.
# B16-Ova cells [6] = experiment: ATP levels in cell-free culture media by CellTiter-Glo; assay type: cell-based, mouse; conditions: for ATP (nM) MEAN: culture media 24-48 hours after treatment
# Method: For measurement of ATP levels, cell-free culture media obtained as above was analyzed by CellTiter-Glo according to the manufacturer's protocol. Values were converted to ATP concentrations using a standard curve generated using pure ATP.
# [7] = tested on: CT26 mouse colon cancer cells; conditions: previously reported; cited from earlier work
# MC-38-Ova cells = experiment: In vitro cross presentation assay: drug-treated MC-38-Ova cells, BMDC and OT-1 CD8+ T-cells; assay type: cell-based, mouse
# Method: as §1
# [8] = tested on: B16F10 melanoma tumor cell line; experiment: Cell viability (survival) assay with CellTiter-Glo, 48 hours; assay type: cell-based, mouse; conditions: at the concentrations used
# Method: as §2
smiles,measurement,setting,value
"COc1cccc2c1C(=O)c1c(O)c3c(c(O)c1C2=O)C[C@@](O)(C(=O)CO)C[C@@H]3O[C@H]1C[C@H](N)[C@H](O)[C@H](C)O1 [Dox, doxorubicin]",cell death,[1]; 10 μM and 50 μM,high levels of cell death
same,cell death by DAPI and Annexin V staining,[1]; 48 hours,caused varying extents of apoptotic and non-apoptotic cell death
same,cytotoxicity at 10 µM,"[1]; Mus musculus, B16-F10, 10 uM, 48 hours, read-out: AnnV+DAPI+ (%) Mean",48%
same,cytotoxicity at 10 µM,"[1]; Mus musculus, B16-F10, 10 uM, 48 hours, read-out: AnnV+DAPI− (%) Mean",31.6%
same,cytotoxicity at 10 µM,"[1]; Mus musculus, B16-F10, 10 uM, 48 hours, read-out: AnnV−DAPI+ (%) Mean",0.04%
same,viability at 10 µM,"[1]; Mus musculus, B16-F10, 10 uM, 48 hours, read-out: AnnV−DAPI− (%) Mean",20.4%
same,cytotoxicity at 50 µM,"[1]; Mus musculus, B16-F10, 50 uM, 48 hours, read-out: AnnV+DAPI+ (%) Mean",52.1%
same,cytotoxicity at 50 µM,"[1]; Mus musculus, B16-F10, 50 uM, 48 hours, read-out: AnnV+DAPI− (%) Mean",27.1%
same,cytotoxicity at 50 µM,"[1]; Mus musculus, B16-F10, 50 uM, 48 hours, read-out: AnnV−DAPI+ (%) Mean",0.04%
same,viability at 50 µM,"[1]; Mus musculus, B16-F10, 50 uM, 48 hours, read-out: AnnV−DAPI− (%) Mean",20.8%
same,HMGB1 (ng/ml) MEAN,B16-Ova cells [2]; 10 uM,77.83 ng/mL
same,HMGB1 (ng/ml) MEAN,B16-Ova cells [2]; 50 uM,57.75 ng/mL
same,HMGB1 release into the media,B16-Ova cells [2]; 24-48 hours post-treatment window,high levels of HMGB1 release
same,CALR (%),B16-Ova cells [3]; 10 uM,4.97%
same,CALR (%),B16-Ova cells [3]; 50 uM,2.82%
same,level of externalized calreticulin,B16-Ova cells [3]; 24 hours of drug exposure,lowest levels
same,p38MAPK activation,p38MAPK,p38MAPK activation
same,activating cells,B16-Ova cells [4]; 0.5 μM and 1.0 μM,effective at activating cells
same,activating cells,B16-Ova cells [4]; 10 μM and 50 μM,not effective at activating cells
same,inducing DC-mediated IFN-γ in T-cells,"B16-Ova cells [4]; 10 and 50 uM (Table 3, Table 4)",ineffective
same,% CD3+CD8+IFN-γ+ T-cells MEAN,B16-Ova cells [4]; B16-Ova cells treated with 10 uM for 24 h,0.13%
same,% CD3+CD8+IFN-γ+ T-cells MEAN,B16-Ova cells [4]; B16-Ova cells treated with 50 uM for 24 h,0.28%
same,IFN-gamma production in CD8+ T-cells,B16-Ova cells [4]; specific doses,promote IFN-gamma production in CD8+ T-cells
same,"viability at 48 h, 10 µM",[5]; 10 uM,0.505%
same,"viability at 48 h, 50 µM",[5]; 50 uM,0.126%
same,ATP (nM) MEAN,B16-Ova cells [6]; 10 uM,1.11 nM
same,ATP (nM) MEAN,B16-Ova cells [6]; 50 uM,0.83 nM
same,ATP release,B16-Ova cells [6]; after 24 hours of treatment,Substantial ATP release
same,immunogenic cell death / calreticulin exposure,[7],induce calreticulin exposure
same,% CD3+CD8+IFN-γ+ T-cells MEAN,MC-38-Ova cells; MC-38-Ova cells treated with 10 uM for 24 h,1.217%
same,% CD3+CD8+IFN-γ+ T-cells MEAN,MC-38-Ova cells; MC-38-Ova cells treated with 50 uM for 24 h,0.08667%
"CC(=O)O[C@H]1C(=O)[C@@]2(C)[C@H]([C@H](OC(=O)c3ccccc3)[C@]3(O)C[C@H](OC(=O)[C@H](O)[C@@H](NC(=O)c4ccccc4)c4ccccc4)C(C)=C1C3(C)C)[C@]1(OC(C)=O)CO[C@@H]1C[C@@H]2O [Pac, paclitaxel]",cell death by DAPI and Annexin V staining,[1]; 48 hours,did not induce substantial amounts of cell death
same,cytotoxicity at 0.2 µM,"[1]; Mus musculus, B16-F10, 200 nM, 48 hours, read-out: AnnV+DAPI+ (%) Mean",4.79%
same,cytotoxicity at 0.2 µM,"[1]; Mus musculus, B16-F10, 200 nM, 48 hours, read-out: AnnV+DAPI− (%) Mean",7.2%
same,cytotoxicity at 0.2 µM,"[1]; Mus musculus, B16-F10, 200 nM, 48 hours, read-out: AnnV−DAPI+ (%) Mean",2.18%
same,viability at 0.2 µM,"[1]; Mus musculus, B16-F10, 200 nM, 48 hours, read-out: AnnV−DAPI− (%) Mean",85.8%
same,cytotoxicity at 1 µM,"[1]; Mus musculus, B16-F10, 1 uM, 48 hours, read-out: AnnV+DAPI+ (%) Mean",2.98%
same,cytotoxicity at 1 µM,"[1]; Mus musculus, B16-F10, 1 uM, 48 hours, read-out: AnnV+DAPI− (%) Mean",3.03%
same,cytotoxicity at 1 µM,"[1]; Mus musculus, B16-F10, 1 uM, 48 hours, read-out: AnnV−DAPI+ (%) Mean",2.79%
same,viability at 1 µM,"[1]; Mus musculus, B16-F10, 1 uM, 48 hours, read-out: AnnV−DAPI− (%) Mean",91.2%
same,"viability at 48 h, 0.2 µM",[5]; 0.2 uM,69.8%
same,"viability at 48 h, 1 µM",[5]; 1 uM,74%
same,growth arrest,[8],caused some degree of growth arrest
